# Assay results reported in PMC11298695.
# Read-outs that look alike come from different tables or passages of the source.
# Legend:
# [1] = Efflux function of the Caco-2 cell model with Rhodamine 123; type: in vitro ADME; settings: human
# [2] = Powder dissolution (apparent solubility) in pH 6.8 phosphate buffer and water; type: physicochemical
# Method: A Model 1,525 system (Waters Corporation, Milford MA, United States) equipped with a photodiode array (PDA) detector (Waters 2998, Milford MA, United States) and a SunFire C18 column (4.6 mm × 250 mm, 5 μm, Waters, Ireland) was used for HPLC analysis. The column temperature was maintained at 37°C and the autosampler temperature was room temperature. The mobile phase consisted of methanol and H2O (70:30, v/v) at a flow rate of 1.0 mL/min. The detection wavelength of the UV detector was 248 nm and the injection volume of sample was 20 µL. The standard curve ranged from 10 μg/mL to 0.078125 μg/mL. […] The powders were sieved using standard sieves to control particle size within 75–150 µm. […] The filtrates were diluted to an appropriate concentration, and analyzed using HPLC.
# Caco-2 cells = assay: in vitro; type: cell-based; settings: Caco-2, CCK-8
# in vitro = type: cell-based; settings: human, Caco-2 cells, read-out: cell viability; for viability at 24 h: Caco-2, 24 h
# in vivo = settings: male, dog, plasma, beagle dogs, oral, 40 mg/kg
# [3] = Environmental pH of dissolution media; type: physicochemical
# Caco-2 cell monolayer = Caco-2 cell monolayer transport of DAI (AP to BL); type: in vitro ADME; settings: 120 min
# Method: (§1) Caco-2 cells were seeded on 12-well Transwell® (Corning Costar, Lowell, MA, United States) culture plates (pore size 0.4 µm, surface area 1.12 cm^2) at 5 × 10^4 cells/mL. On the 3rd, 5th, 7th, 13th, 18th, and 21st days of culture, the transepithelial electrical resistance (TEER) value was measured using an EVOM2 transmembrane resistance meter (Millipore, United States) to evaluate the integrity of the Caco-2 cell monolayer.
# (§2) After washing the Caco-2 cell monolayer twice with prewarmed Hank’s Balanced Salt Solution (HBSS), the transport experiments were performed by adding the final concentration of DAI (0.5 mL) to the apical side (AP) as the donor chamber, and adding HBSS (1.5 mL) to the basolateral side (BL) as the receiving chamber. The plate was incubated at 37°C and 200 μL of sample was collected from the BL side at 30, 45, 60, 90, and 120 min. […]
# (§3) The apparent permeability coefficient (P app ) for DAI was calculated using Eq. 3 ([Ndayishimiye et al., 2022]). Papp=dQ/dt∗1/A∗C0 cm/s (3) where Q refers to the cumulative transport amount, i.e., the total drug quantity on the receiving side (μg); dQ/dt represents the transport rate of the drug through the Caco-2 cell monolayer (μg/s); A denotes the chamber membrane area (1.12 cm^2); and C0 is the initial concentration of DAI on the AP side (μg/mL).
# [4] = Caco-2 cell monolayer transport of DAI (AP to BL); type: in vitro ADME; settings: human, Caco-2, DAI 50 μg/mL, read-out: apparent permeability coefficient (P app)
# Method: as §1, §2, §3
# [5] = ref Nan et al., 2014, Panizzon et al., 2019; cited from earlier work
# [6] = no reference given; cited from earlier work
structure (smiles),measurement,setting,value
COC(=O)c1ccccc1-c1c2ccc(=N)cc-2oc2cc(N)ccc12 [Rhodamine 123],Papp A→B at 120 min,[1]; 120 min,0.179 ± 0.061 ×10⁻⁶ cm/s
same,Papp B→A at 120 min,[1]; 120 min,0.852 ± 0.016 ×10⁻⁶ cm/s
same,efflux ratio at 120 min,"[1]; Papp BL→AP / Papp AP→BL, read-out: Efflux ratio (ER)",4.76
"O=c1c(-c2ccc(O)cc2)coc2cc(O)ccc12 [DAI, 4′,7-dihydroxyisoflavone]",peak time of Smax,[2]; pH 6.8 buffer,45 min
same,solubility at 45 min,"[2]; pH 6.8 phosphate buffer, aqueous buffer, thermodynamic from solid, pH 6.8 buffer, 37°C, powder dissolution, read-out: maximum apparent solubility (Smax)",1.01 ± 0.06 µg/mL
same,time to reach Smax,[2]; water,≤ 240 min
same,solubility at 240 min,"[2]; water, 37 °C, water, thermodynamic from solid, read-out: maximum apparent solubility (Smax)",0.48 ± 0.09 µg/mL
same,effect on Caco-2 cells,Caco-2 cells,dose-dependent inhibitory effect
same,viability at 24 h,in vitro; 1st of five listed concentrations (not assigned),87%
same,viability at 24 h,in vitro; 2nd of five listed concentrations (not assigned),88.1%
same,viability at 24 h,in vitro; 3rd of five listed concentrations (not assigned),94.7%
same,viability at 24 h,in vitro; 4th of five listed concentrations (not assigned),98%
same,viability at 24 h,in vitro; 5th of five listed concentrations (not assigned),94%
same,Tmax,in vivo,49.8 ± 8.4 min
same,Cmax,in vivo,210 ± 40 ng/mL
same,AUC,in vivo; read-out: AUC0∼24,1740 ± 150 ng·h/mL
same,environmental pH,[3]; medium pH6.8 buffer,6.74 ± 0.03
same,environmental pH,[3]; medium water (pH 7.0),3.80 ± 0.06
same,cumulative transport of DAI,Caco-2 cell monolayer,9.19 ± 0.65 µg
same,"Papp at 120 min, 50 μg/mL",[4],22.8 ± 1.6 ×10⁻⁶ cm/s
same,water solubility,[5],0.31 µg/mL
same,pK a,[6],7.43
"C1CNCCN1 [PIP, Piperazine]","viability at 24 h, 16.94 μg/mL","in vitro; Caco-2, PIP 16.94 μg/mL",85.2%
